Test results from ChEMBL document CHEMBL1201862, “PubChem BioAssay data set” (2004).
Activity calls are given as the source filed them.

Columns and labels:
[1] = molecular target: T1, Estrogen receptor beta (Homo sapiens, UniProt Q92731);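 also: recombinant ER-beta bound to coactivator SRC1 peptide in presence of estradiol agonist; inhibitors block coactivator peptide binding and lower the FRET signal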
[2] = molecular target: Bcl-2-like protein 10 (Homo sapiens, UniProt Q9HD36); assay: Bcl-B/TR3 peptide binding disruption – biochemical, fluorescence polarization, FITC-TR3 peptide, selectivity assay for Bfl-1 inhibitor project, primary screen (AID 748);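 also: fluorescence polarization from a fluorescein-labelled TR3 peptide binding purified Bcl-B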
Sequence of Bcl-2-like protein 10 (Q9HD36 whole entry): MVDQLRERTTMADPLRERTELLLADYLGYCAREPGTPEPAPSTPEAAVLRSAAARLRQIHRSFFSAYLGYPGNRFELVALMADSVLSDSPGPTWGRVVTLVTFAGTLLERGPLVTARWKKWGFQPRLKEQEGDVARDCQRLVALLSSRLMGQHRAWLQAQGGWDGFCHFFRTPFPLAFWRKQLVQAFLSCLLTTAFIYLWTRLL

[3] = molecular target: T1, Estrogen receptor beta; assay: blockers of SRC-3 recruitment to ERβ – biochemical, ELISA, streptavidin-HRP readout, orthogonal assay, confirmation (AID 1060)
[4] = molecular target: Polyadenylate-binding protein 1 (Homo sapiens, UniProt P11940); assay: blockers of PABP interaction with poly(A) – biochemical, fluorescence polarization, […] (AID 2014)
[5] = molecular target: Eukaryotic translation initiation factor 4H (Homo sapiens, UniProt Q15056); assay: eIF4H binding inhibition – biochemical, uHTS, fluorescence polarization, translation initiation inhibitor project, primary screen (AID 2012)
[6] = test system: HeLa; assay: viability loss in HeLa cells – cell-based, 24 h, cherry-picked samples, cytotoxicity control, dose response (AID 504726); format: functional; settings: Homo sapiens;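 also: potency for cytotoxicity as loss of luminescence signal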
[7] = molecular target: Aspartyl aminopeptidase (Plasmodium falciparum 3D7, UniProt Q8I2J3)
Sequence of Aspartyl aminopeptidase (Q8I2J3 whole entry): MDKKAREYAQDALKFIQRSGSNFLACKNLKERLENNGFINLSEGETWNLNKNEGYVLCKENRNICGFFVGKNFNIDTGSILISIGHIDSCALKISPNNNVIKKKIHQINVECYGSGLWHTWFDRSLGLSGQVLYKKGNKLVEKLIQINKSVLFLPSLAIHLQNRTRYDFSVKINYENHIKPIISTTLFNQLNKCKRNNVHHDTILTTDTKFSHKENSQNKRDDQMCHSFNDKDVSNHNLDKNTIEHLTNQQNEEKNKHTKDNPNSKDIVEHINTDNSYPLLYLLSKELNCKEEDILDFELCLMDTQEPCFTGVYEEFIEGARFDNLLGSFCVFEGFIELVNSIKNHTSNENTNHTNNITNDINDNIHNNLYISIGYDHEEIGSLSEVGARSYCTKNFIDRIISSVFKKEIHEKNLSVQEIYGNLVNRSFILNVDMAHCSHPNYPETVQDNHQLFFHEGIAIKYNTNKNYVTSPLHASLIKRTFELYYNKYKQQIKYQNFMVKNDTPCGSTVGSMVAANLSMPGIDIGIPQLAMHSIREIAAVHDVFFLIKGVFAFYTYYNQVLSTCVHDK

[8] = molecular target: Procathepsin L (Homo sapiens, UniProt P07711)
[9] = molecular target: T2, DNA repair and recombination protein RAD54-like (Homo sapiens, UniProt Q92698); assay: RAD54 Holliday junction migration blockers – biochemical, fluorescence, cherry-picked samples, dose series, confirmation (AID 651657); format: functional
T2 sequence (Q92698 whole entry): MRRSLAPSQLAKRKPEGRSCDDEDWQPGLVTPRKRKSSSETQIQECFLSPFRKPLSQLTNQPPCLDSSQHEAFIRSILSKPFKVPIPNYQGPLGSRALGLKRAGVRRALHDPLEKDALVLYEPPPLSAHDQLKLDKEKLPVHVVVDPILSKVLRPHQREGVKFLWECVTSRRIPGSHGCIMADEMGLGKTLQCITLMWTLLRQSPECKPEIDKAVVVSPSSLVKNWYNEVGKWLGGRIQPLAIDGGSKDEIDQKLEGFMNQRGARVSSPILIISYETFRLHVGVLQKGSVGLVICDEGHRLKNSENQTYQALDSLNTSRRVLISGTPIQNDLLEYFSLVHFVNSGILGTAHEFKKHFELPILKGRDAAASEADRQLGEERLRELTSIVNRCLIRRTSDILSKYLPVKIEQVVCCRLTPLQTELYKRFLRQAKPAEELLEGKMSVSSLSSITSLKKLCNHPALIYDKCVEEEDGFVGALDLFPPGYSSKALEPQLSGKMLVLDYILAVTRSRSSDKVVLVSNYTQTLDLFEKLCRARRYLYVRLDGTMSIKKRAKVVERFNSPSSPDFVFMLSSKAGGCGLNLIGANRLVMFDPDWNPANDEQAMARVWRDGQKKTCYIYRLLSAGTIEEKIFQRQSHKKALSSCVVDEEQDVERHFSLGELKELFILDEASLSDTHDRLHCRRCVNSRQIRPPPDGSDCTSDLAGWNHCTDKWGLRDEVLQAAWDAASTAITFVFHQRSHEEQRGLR

[10] = cells; format: functional, cell-based
[11] = cells; format: functional, cell-based; remark: listed apart in the source
[12] = molecular target: FAD-linked sulfhydryl oxidase ALR (Homo sapiens, UniProt P55789); assay: ALR-catalysed DTT oxidation blockers – biochemical, H2O2 detection, luminescence, cherry-pick, dose response (AID 493248)
Sequence of FAD-linked sulfhydryl oxidase ALR (P55789 whole entry): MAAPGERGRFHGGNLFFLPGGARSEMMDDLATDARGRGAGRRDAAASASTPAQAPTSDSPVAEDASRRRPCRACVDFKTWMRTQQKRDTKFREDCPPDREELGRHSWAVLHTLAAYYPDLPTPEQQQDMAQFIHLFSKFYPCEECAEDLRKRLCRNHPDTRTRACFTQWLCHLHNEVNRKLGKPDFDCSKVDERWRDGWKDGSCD

[13] = molecular target: T3, Zinc finger protein mex-5 (Caenorhabditis elegans, UniProt Q9XUB2); assay: potency of MEX-5 RNA-binding blockers – biochemical, C. elegans, fluorescence polarization, dose response (AID 1960)
T3 sequence (Q9XUB2 whole entry): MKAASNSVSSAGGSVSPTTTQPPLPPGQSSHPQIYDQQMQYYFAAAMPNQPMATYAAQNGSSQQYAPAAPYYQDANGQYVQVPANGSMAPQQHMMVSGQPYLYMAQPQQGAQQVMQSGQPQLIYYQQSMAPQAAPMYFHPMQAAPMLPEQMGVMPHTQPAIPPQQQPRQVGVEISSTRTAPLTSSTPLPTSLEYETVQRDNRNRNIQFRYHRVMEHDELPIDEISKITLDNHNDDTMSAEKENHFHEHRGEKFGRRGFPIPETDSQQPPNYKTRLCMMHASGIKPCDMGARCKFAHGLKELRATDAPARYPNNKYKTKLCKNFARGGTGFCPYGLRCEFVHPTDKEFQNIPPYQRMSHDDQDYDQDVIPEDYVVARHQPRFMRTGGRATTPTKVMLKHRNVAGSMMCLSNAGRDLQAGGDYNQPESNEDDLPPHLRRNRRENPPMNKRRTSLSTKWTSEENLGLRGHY

[14] = molecular target: 5-hydroxytryptamine receptor 2A (Mus musculus, UniProt P35363); format: functional, cell-based;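 also: CHO-K1 cells with tagged receptor and beta-arrestin; agonist potency measured as compound-induced activation of the receptor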
Sequence of 5-hydroxytryptamine receptor 2A (P35363 whole entry): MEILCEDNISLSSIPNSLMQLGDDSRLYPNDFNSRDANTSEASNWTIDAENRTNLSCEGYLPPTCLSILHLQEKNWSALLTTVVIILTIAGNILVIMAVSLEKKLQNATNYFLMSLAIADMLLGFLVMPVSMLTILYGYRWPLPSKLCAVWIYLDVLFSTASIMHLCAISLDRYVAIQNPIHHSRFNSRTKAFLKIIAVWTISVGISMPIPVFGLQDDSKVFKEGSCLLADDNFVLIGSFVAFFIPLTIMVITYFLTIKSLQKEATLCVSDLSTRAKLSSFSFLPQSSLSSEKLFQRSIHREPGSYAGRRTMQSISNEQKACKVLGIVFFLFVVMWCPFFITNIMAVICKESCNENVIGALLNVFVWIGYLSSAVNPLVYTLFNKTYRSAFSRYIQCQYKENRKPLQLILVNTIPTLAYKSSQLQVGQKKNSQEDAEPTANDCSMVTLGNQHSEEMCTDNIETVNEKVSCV

[15] = molecular target: Mu-type opioid receptor (Homo sapiens, UniProt P35372); format: functional, cell-based;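 also: U2OS cells with beta-arrestin recruitment to OPRM1 by beta-gal complementation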
[16] = molecular target: Large T antigen (Simian virus 40, UniProt P03070); format: functional, Betapolyomavirus macacae;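 also: Confirmatory-stage PubChem screen for compounds that inhibit SV40 T antigen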
Sequence of Large T antigen (P03070 whole entry, the tested form may be a part): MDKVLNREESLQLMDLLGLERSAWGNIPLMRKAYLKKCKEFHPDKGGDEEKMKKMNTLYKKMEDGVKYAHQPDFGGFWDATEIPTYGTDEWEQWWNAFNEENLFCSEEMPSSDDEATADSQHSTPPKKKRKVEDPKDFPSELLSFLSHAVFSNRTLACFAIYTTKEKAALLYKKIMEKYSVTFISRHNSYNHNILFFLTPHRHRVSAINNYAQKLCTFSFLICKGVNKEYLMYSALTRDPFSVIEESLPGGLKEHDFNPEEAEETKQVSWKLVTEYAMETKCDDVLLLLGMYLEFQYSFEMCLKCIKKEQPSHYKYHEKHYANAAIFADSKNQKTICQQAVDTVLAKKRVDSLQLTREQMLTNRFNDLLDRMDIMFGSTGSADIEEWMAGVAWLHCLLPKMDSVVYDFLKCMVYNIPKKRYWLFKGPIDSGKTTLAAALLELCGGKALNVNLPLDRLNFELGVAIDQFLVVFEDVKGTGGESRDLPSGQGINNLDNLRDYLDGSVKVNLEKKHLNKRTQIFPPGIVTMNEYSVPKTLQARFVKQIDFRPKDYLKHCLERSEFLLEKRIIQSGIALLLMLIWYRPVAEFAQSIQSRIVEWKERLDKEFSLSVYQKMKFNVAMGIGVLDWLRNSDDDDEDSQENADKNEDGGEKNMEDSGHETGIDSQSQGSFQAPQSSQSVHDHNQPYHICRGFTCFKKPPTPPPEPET

[17] = molecular target: T4, RNA-binding protein pos-1 (Caenorhabditis elegans, UniProt G5EF15); assay: disruptors of C. elegans POS-1 RNA interaction – biochemical, fluorescence polarization, dose response (AID 1964);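 also: purified POS-1 fused to maltose binding protein made in E. coli; potency of compounds blocking POS-1 binding to fluorescent RNA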
T4 sequence (G5EF15 whole entry): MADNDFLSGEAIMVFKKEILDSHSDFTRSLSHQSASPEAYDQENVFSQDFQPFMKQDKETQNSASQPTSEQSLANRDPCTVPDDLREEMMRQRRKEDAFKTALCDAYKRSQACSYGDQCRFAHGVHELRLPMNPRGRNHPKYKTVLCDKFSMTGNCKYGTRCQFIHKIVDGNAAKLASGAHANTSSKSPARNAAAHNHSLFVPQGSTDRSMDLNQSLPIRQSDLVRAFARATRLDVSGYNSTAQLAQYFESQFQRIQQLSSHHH

[18] = NIH3T3 cell viability loss – ATP luminescence, mouse fibroblasts, counter-screen, dose response (AID 2010); format: functional, cell-based;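 also: cells exposed to compound for about 90 hours before reading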
[19] = cytotoxicity toward MDA-MB-231 breast cancer cells – cell-based, CellTiter-Glo luminescence, cherry-pick, cytotoxicity control for RAD54 inhibitor project, dose response (AID 651692); format: functional
[20] = molecular target: Neurotensin receptor type 1 (Homo sapiens, UniProt P30989); format: functional;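 also: Image-based confirmatory dose-response assay measuring agonist activity at NTR1; NTR1-expressing U2OS osteosarcoma cells imaged for beta-arrestin GFP spot formation; agonist potency where compounds increase beta-arrestin recruitment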
Sequence of Neurotensin receptor type 1 (P30989 whole entry): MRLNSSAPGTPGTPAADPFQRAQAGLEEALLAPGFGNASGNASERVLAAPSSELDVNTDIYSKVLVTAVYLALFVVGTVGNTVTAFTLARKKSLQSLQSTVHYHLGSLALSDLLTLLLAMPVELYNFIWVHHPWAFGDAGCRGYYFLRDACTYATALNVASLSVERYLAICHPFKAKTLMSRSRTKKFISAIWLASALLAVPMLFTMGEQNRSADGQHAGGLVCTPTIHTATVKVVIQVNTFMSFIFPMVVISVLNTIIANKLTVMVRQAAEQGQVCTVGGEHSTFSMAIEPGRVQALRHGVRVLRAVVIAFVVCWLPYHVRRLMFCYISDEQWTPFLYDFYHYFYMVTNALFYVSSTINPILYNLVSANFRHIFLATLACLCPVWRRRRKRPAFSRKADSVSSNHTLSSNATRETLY

[21] = general mammalian cell viability loss – activator set, cherry-pick, cytotoxicity control for miR-122 modulator project, dose response (AID 720690); format: functional, cell-based;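 also: HEK293T human cells scored for general mammalian cytotoxicity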
[22] = test system: INS1; assay: INS-1E survival protection against cytokine death – cell-based, luminescence, retest, dose response (AID 449756); format: functional; settings: Rattus norvegicus;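 also: cell death triggered by IL-1 beta plus TNF-alpha plus IFN-gamma mixture; protective hits raise ATP signal compared with cytokine alone wells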
[23] = molecular target: Melanocortin receptor 4 (Homo sapiens, UniProt P32245); format: functional, cell-based;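 also: Cell-based assay with luminescence read-out, confirmatory dose-response testing for agonist activity of biased ligands at MC4R; human U2OS cells with tagged receptor and beta-arrestin; potency of agonists that increase receptor coupling to beta-arrestin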
Sequence of Melanocortin receptor 4 (P32245 whole entry): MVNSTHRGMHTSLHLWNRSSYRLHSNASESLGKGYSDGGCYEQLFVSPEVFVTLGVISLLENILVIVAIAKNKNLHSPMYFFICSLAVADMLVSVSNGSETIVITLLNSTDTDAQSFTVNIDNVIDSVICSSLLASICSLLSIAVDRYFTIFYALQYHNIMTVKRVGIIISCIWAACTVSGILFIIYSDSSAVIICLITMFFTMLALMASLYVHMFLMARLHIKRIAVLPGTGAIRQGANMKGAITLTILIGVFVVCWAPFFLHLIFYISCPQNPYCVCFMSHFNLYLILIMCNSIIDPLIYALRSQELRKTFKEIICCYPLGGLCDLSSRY

[24] = Trypanosoma cruzi growth suppression in host cells – NIH3T3 host cells, beta-gal luminescence, confirmation (AID 2044); format: functional, cell-based;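 also: intracellular parasites grown in NIH/3T3 mouse fibroblasts as host cells; luminescent beta-galactosidase reporter signal from transgenic T. cruzi replicating inside host cells; inhibitors lower the luminescence signal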
[25] = molecular target: T5, Dual specificity protein phosphatase 3 (Homo sapiens, UniProt P51452); assay: MOA VHR1 Fluorescent secondary assay for identification of redox-state modulating compounds. [Related pubchem assays (depositor defined):AID1654, AID1661, AID1878, AID1957]
T5 sequence (P51452 whole entry): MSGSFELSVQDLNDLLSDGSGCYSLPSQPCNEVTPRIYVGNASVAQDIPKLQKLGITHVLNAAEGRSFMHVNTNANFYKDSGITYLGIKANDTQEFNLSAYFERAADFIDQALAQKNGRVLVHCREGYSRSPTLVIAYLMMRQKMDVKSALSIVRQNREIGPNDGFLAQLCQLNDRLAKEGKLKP

[26] = molecular target: Glyceraldehyde-3-phosphate dehydrogenase (Homo sapiens, UniProt P04406)
Sequence of Glyceraldehyde-3-phosphate dehydrogenase (P04406 whole entry): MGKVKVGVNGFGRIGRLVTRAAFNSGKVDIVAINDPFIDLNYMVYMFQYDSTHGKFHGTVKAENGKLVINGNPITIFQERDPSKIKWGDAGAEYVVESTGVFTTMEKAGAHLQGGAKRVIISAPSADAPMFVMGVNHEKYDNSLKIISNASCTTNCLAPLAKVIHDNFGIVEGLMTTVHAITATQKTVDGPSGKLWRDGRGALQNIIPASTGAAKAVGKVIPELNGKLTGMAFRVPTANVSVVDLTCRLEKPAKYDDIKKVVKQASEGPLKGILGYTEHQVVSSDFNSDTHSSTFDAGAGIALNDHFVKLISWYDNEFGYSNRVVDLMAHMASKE

[27] = molecular target: T6, Tyrosine-protein phosphatase non-receptor type 7 (Homo sapiens, UniProt P35236); assay: redox-active compounds inhibiting HePTP phosphatase – biochemical, fluorescence, mechanism study (AID 2068); format: functional
T6 sequence (P35236 whole entry): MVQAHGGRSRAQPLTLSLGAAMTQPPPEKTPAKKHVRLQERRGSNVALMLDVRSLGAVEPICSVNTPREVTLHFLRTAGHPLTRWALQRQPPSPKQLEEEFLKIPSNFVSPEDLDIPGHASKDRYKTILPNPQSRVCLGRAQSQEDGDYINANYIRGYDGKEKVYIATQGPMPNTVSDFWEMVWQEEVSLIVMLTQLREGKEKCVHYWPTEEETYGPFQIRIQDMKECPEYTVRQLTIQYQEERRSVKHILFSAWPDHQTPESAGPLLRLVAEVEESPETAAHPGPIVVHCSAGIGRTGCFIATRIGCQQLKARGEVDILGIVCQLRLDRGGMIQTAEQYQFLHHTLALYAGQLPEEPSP

[28] = molecular target: T7, Dual specificity protein phosphatase 6 (Rattus norvegicus, UniProt Q64346); format: functional
T7 sequence (Q64346 whole entry): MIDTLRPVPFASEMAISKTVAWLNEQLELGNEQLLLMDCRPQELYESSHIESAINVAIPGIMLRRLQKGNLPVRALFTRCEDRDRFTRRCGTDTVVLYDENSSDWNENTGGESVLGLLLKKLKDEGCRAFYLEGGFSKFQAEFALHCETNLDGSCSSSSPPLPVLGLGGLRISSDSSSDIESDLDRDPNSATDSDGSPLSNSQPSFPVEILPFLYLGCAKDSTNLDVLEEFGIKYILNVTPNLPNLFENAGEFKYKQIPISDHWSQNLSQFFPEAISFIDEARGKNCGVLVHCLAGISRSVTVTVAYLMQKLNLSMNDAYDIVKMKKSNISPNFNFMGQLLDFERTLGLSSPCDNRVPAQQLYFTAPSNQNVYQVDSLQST

[29] = molecular target: T6, Tyrosine-protein phosphatase non-receptor type 7; format: functional
[30] = molecular target: T5, Dual specificity protein phosphatase 3; assay: SAR VHR1 Fluorescent Assay for In Vitro dose response studies. [Related pubchem assays (depositor defined):AID1654, AID1661, AID1878, AID1992, AID2004, AID2070, AID2085]; format: functional
[31] = molecular target: T7, Dual specificity protein phosphatase 6
[32] = viability of PTEN-deleted HCT116 cells – cell-based, HCT116 PTEN knockout, dose response (AID 1047); format: functional;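 also: HCT116 colon tumor cells with PTEN knocked out; cells exposed to compound for 60 hours before readout; potency for loss of cell viability measured by luminescence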
[33] = molecular target: Scavenger receptor class B member 1 (Mus musculus, UniProt Q61009); assay: mouse SR-BI DiI-HDL uptake blockers – ldlA[mSR-BI] cells, fluorescence, cherry pick, dose response (AID 493194); format: functional, cell-based;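 also: cellular uptake of fluorescent DiI-labeled HDL measured as cell fluorescence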
[34] = molecular target: T8, Streptokinase A (Streptococcus pyogenes serotype M1, UniProt P10520); assay: viability-normalized secreted streptokinase activity reduction – plasminogen activation absorbance, OD405, dose response (AID 1914); format: functional, Streptococcus pyogenes M1 GAS;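 also: secreted streptokinase activity via plasminogen activation per viability signal from cell pellet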
T8 sequence (P10520 whole entry): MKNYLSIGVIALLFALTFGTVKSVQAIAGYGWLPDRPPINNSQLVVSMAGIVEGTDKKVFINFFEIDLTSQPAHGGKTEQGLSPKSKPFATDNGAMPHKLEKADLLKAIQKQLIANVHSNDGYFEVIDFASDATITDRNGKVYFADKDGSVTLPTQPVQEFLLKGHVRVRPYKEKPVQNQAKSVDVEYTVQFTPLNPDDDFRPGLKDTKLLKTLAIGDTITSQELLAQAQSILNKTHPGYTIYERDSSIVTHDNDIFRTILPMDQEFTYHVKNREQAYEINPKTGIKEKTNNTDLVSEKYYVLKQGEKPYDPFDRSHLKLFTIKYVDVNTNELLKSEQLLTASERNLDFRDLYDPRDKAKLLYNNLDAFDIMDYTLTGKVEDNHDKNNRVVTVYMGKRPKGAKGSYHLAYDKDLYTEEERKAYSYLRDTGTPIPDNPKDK

[35] = viability of HCT116 lacking mutant beta-catenin – cell-based, human colon tumor, dose response (AID 1045); format: functional;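 also: HCT116 colon tumor cells with beta catenin knocked out; cells exposed to compound for 60 hours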
[36] = test system: Streptococcus sp. 'group A'; assay: Streptococcus pyogenes SK(-)GAS viability under kanamycin – luminescence, BacTiterGlo, confirmation, counter-screen for streptokinase expression inhibitor project, dose response (AID 1900); format: functional, organism-based
[37] = test system: Streptococcus; assay: GAS UMAA2166 growth inhibition – luminescence, BacTiterGlo, counter-screen for streptokinase expression inhibitor project, dose response (AID 1915); format: functional, organism-based;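 also: potency for reduction of bacterial viability or growth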
[38] = molecular target: Neuropeptides B/W receptor type 1 (Homo sapiens, UniProt P48145); assay: Fluorescence-based dose response cell-based high throughput screening assay to identify antagonists of the G-protein coupled receptor 7 (GPR7). [Related pubchem assays: 1952 (Screening assay (GPR7 antagonists).), 1880 (Summary AID.)]; format: functional
Sequence of Neuropeptides B/W receptor type 1 (P48145 whole entry): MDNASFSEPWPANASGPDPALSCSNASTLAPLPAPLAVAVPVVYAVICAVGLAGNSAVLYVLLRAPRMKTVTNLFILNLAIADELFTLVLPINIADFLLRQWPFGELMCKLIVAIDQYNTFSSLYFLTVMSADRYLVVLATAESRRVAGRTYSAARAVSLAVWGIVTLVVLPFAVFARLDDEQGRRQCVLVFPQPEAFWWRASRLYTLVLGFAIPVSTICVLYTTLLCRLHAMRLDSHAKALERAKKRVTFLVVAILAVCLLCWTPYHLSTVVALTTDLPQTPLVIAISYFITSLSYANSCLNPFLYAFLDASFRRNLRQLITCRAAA

[39] = molecular target: Melanin-concentrating hormone receptor 1 (Homo sapiens, UniProt Q99705); assay: Fluorescence-based counterscreen for antagonists of the G-protein coupled receptor 7 (GPR7): cell-based high throughput dose response assay to identify antagonists of the melanin-concentrating hormone receptor 1 (MCHR1).; format: functional
Sequence of Melanin-concentrating hormone receptor 1 (Q99705 whole entry): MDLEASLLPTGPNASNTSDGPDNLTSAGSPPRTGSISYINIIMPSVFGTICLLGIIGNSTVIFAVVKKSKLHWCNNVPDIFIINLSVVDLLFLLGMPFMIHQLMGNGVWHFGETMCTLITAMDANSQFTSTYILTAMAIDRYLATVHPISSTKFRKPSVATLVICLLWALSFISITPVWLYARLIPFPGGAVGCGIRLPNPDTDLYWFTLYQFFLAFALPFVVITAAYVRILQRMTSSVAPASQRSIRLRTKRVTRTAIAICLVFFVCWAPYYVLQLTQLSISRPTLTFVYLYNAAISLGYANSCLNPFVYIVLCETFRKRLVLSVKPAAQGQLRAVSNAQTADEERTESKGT

T1 sequence (Q92731 whole entry): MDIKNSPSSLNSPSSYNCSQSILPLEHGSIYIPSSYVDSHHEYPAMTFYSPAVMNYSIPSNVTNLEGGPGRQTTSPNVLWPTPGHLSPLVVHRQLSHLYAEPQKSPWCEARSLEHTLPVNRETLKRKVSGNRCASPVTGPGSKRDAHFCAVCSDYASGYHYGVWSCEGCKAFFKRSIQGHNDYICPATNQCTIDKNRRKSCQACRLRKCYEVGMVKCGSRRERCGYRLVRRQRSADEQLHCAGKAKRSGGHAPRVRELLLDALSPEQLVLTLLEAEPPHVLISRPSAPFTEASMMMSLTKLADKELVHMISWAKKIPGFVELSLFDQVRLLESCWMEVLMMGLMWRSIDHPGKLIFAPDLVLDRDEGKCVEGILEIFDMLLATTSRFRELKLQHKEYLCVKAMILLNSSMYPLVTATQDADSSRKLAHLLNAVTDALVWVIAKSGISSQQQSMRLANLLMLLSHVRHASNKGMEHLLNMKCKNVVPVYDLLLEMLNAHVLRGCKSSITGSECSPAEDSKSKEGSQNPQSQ

CCOc1ccc2[nH]c(=O)c(=O)[nH]c2c1
IC50 [1]: > 50 µM (not active)
IC50 [2]: > 50 µM (inactive)
IC50 [3]: 12.2 µM (not active)

CCc1ccc(NS(=O)(=O)c2ccc(C)c(C(=O)N3CCOCC3)c2)cc1
IC50 [4]: 6.21 µM (active)
IC50 [5]: > 100 µM (inactive)

COC(=O)c1ccc(Oc2nc(Nc3ccc(F)cc3)nc(N3CCCC3)n2)cc1
AC50 [6]: 289 µM (active)

Oc1ccc(CCNc2c3ccccc3nc3ccccc23)cc1O
IC50 [7]: 2.49 µM (active)
IC50 [8]: > 59.6 µM (not active)
AC50 [9]: 1.87 µM (active)
EC50 [10]: > 350 µM (not active)
EC50 [11]: > 350 µM (not active)
AC50 [12]: 2.76 µM (active)
EC50 [13]: 10.1 µM (active)
EC50 [14]: 76.1 µM (inactive)
EC50 [15]: 92.5 µM (inactive)
IC50 [16]: 8.41 µM (active)
EC50 [17]: > 300 µM (not active)

Cc1cc(C)cc(OCC(O)CN2CCC(CN3C(=O)c4cccc5cccc(c45)C3=O)CC2)c1 (stereo not given)
EC50 [18]: 9.92 µM (active)
AC50 [19]: 23.6 µM (active)
EC50 [20]: 18.6 µM (active)
AC50 [21]: 15.9 µM (active)
AC50 [9]: 7.63 µM (active)
AC50 [22]: 5.59 µM (active)
EC50 [23]: > 89.2 µM (inactive)
EC50 [24]: 1.82 µM (active)

O=c1/c(=C/c2ccc(-c3cc(Cl)cc(Cl)c3)o2)sc2nc3cc(Br)cnc3n12
IC50 [25]: 2.23 µM (active)
IC50 [26]: > 100 µM (not active)
IC50 [27]: 1.15 µM (active)
IC50 [28]: > 100 µM (inactive)
IC50 [29]: > 100 µM (not active)
IC50 [30]: 8.81 µM (active)
IC50 [31]: > 100 µM (inactive)

COc1ccc(-c2nc(-c3ccc4c(c3)OCO4)[nH]c2-c2ccc(OC)cc2)cc1
EC50 [32]: 16.7 µM (active)
AC50 [33]: 18.1 µM (active)
EC50 [34]: 2.07 µM (active)
EC50 [35]: 19.2 µM (active)
EC50 [36]: 2.62 µM (active)
EC50 [37]: > 150 µM (not active)

Clc1ccc(CN(Cc2ccc(Cl)cc2)c2nnn[nH]2)cc1
IC50 [38]: > 14.6 µM (not active)
IC50 [39]: > 14.6 µM (not active)
